Experimental data as given in paper PMC3559838 (PLoS ONE, 2013).
Read-outs that look alike come from different tables or passages of the source.

Tests used:
HepG2 cells = experiment: MTS growth inhibition assay; assay type: cell-based, human; settings: Homo sapiens, HepG2, 72 h
Experimental: To the other plate, equal molar concentrations of belinostat-G were added similarly. After 72 h, cells were stained with Gentian Violet paint (0.5% w/v; B.P.) and assessed for viability. […] After incubating 24 h, 100-µL drug solution or blank medium was added into each well of 96-well plates. 72 h later, 20 µL of MTS/PES was added into each well for incubation for 3 h. OD values are measured on wavelength 490 nm. Cell growth inhibition was calculated based on the […] with subtraction of background reading for only medium containing wells. The growth inhibition was defined as the percentage of the average […] from drug-treated wells over that from control wells without treatment. The experiment was done in triplicates. IC50 values were calculated using GraphPad PRISM software (GraphPad Software, Inc., La Jolla, CA, USA).

[1] = Pharmacokinetics after 30 min i.v. infusion, phase I trial in hepatocellular carcinoma patients; assay type: in vivo, human; settings: for Cmax / AUC(0-t) / Tmax / clearance / half-life / Vd: human, iv, plasma; for Cmax: mean ± SD; for AUC(0-t): read-out: AUC0–24 h; for clearance: read-out: CL (clearance) (converted); for half-life: read-out: T1/2 (half-life at the elimination phase) (converted); for Vd: read-out: Vz (volume of distribution)
Experimental: This multicentre phase I trial of belinostat was done in Hong Kong and Singapore. All patients provided written informed consent according to Good Clinical Practice guidelines, and the protocol was approved by the institutional review boards of Prince of Wales Hospital, Hong Kong and National University Hospital, Singapore.
Venous blood samples had been collected in heparinized tubes. Collected blood samples were centrifuged at 3000 g for 10–15 min and the plasma (supernatant) was separated from the cell pellet and stored in plain tubes at –80°C till analysis. […] Briefly, vorinostat-G was used as the internal standard for belinostat-G. The mass spectrometer was operated in positive ion mode with the optimal mass transitions of belinostat-G: m/z 495>93 and vorinostat-G: m/z 441>232, respectively. The analytical method was well validated with good linearity (coefficient of determination, r^2≥0.999) in the range of 1–100 µM for belinostat-G.
Pharmacokinetic parameters were estimated based on non-compartmental analysis model using WinNonlin software version 5.3 (Pharmsight, Sunnyvale, CA, USA). […] One way analysis of variance (ANOVA) was used to determine the significance among the genotypes with Tukey posthoc tests for adjustment for comparison between individual groups. A value of p<0.05 was considered to be significant.

[2] = design: method as in protocol pharmaceutical information; settings: ref protocol pharmaceutical information, cited from earlier work
[3] = design: method as in Investigator's Brochure, 2004; settings: rats, 100 mg/kg/day, both formulations; ref Investigator's Brochure, 2004; cited from earlier work
[4] = test system: murine P388 leukemia cells; design: method as in Investigator's Brochure, 2004; settings: P388 IP model, ref Investigator's Brochure, 2004, cited from earlier work
[5] = cited from earlier work
[6] = design: method as in Investigator's Brochure, 2004; settings: dogs, ref Investigator's Brochure, 2004, cited from earlier work
[7] = design: method as in Investigator's Brochure, 2004; settings: mice, single IP injection of 20 mg/kg, ref Investigator's Brochure, 2004, cited from earlier work
[8] = test system: cisplatin-resistant A2780/cp70; design: method as in Plumb et al., 2003; Investigator's Brochure, 2004; settings: A2780/cp70 xenografts, 10 mg/kg/day IP once daily for 7 days; ref Plumb et al., 2003; Investigator's Brochure, 2004; cited from earlier work
UGT1A1 = target: T1, UGT1A1 (Homo sapiens, UniProt P22309); experiment: UGT supersome screening and kinetic analysis; assay type: in vitro ADME; settings: 37°C
T1 sequence (P22309 26-533): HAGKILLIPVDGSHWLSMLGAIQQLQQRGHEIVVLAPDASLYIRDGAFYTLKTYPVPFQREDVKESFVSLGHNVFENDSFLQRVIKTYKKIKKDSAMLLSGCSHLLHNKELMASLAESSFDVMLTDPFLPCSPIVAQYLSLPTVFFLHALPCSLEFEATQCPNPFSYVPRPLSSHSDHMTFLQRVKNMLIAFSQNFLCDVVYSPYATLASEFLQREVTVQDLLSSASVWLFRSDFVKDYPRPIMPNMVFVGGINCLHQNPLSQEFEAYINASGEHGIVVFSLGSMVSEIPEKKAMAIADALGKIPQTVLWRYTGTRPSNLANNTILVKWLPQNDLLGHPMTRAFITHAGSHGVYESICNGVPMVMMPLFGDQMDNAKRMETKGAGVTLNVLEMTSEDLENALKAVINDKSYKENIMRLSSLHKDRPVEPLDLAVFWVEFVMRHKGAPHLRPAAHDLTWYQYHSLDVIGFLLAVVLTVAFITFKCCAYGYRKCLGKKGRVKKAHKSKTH
Experimental: Before the addition of substrate, the incubation mixture was prewarmed and equilibrated for 5 min at 37°C. […] The incubation mixture was vortexed and centrifuged (10,060 g) at 4°C for 10 min, and the supernatants were analyzed. Insect microsomes without UGT cDNA served as negative control. […] Incubations were performed as described above. Three independent experiments were performed for kinetic analysis.
Plots of substrate concentration, S (X axis) versus v (Y axis) were then constructed. Km and Vmax were calculated using the Michaelis-Menten equation (GraphPad software, Inc., San Diego, CA, USA).

[9] = test system: five major cytochrome P450 enzymes; settings: cited from earlier work
[10] = 600 mg/m^2, 30 min i.v. infusion
[11] = 900 mg/m^2, 30 min i.v. infusion
[12] = 1200 mg/m^2, 30 min i.v. infusion
[13] = 1400 mg/m^2, 30 min i.v. infusion
[14] = 150 mg/m2, 30-minute IV infusion, ref phase 1 study currently underway
[15] = 300 mg/m2, 30-minute IV infusion, ref phase 1 study currently underway
[16] = 600 mg/m2, 30-minute IV infusion, ref phase 1 study currently underway
[17] = 900 mg/m2, 30-minute IV infusion, ref phase 1 study currently underway
[18] = 1200 mg/m2, 30-minute IV infusion, ref phase 1 study currently underway

In the case of O=C(/C=C/c1cccc(S(=O)(=O)Nc2ccccc2)c1)NO [Belinostat, N-hydroxy-3-(phenylsulphamoylphenyl) acrylamide], the IC50 (HepG2 cells) is reported as 6.4 µM, the “coefficient of variation of Clearance (CL)” value ([1]; 1200 mg/m^2) is reported as 29.0% and the “coefficient of variation of Clearance (CL)” value ([1]; 1400 mg/m^2) is reported as 30.6%. For the same molecule, the “dose linearity of pharmacokinetics” value ([1]; doses ranging from 600 to 1400 mg/m^2) was “linear pharmacokinetics”, the Cmax [1, 10] was 88.2 ± 8.5 µM and the Cmax [1, 11] was 98.5 ± 29.7 µM. The Cmax [1, 12] was 154 ± 50.4 µM, the Cmax [1, 13] was 174 ± 48.3 µM and the AUC(0-t) ([1]; 600 mg/m^2) was 61.3 ± 1.2 µM·h. The AUC(0-t) ([1]; 900 mg/m^2) was 70 ± 17.3 µM·h, the AUC(0-t) ([1]; 1200 mg/m^2) was 113 ± 37.1 µM·h and the AUC(0-t) ([1]; 1400 mg/m^2) was 149 ± 46.2 µM·h. It also gave a Tmax [1, 10] of 19.8 ± 8.4 min, a clearance [1, 10] of 877 mL/min and a half-life [1, 10] of 212 ± 20.4 min. The Vd [1, 10] was 268 ± 26.6 L, the Tmax [1, 11] was 25.2 ± 8.4 min and the clearance [1, 11] was 1180 mL/min. It also gave a half-life [1, 11] of 244 ± 23.4 min, a Vd [1, 11] of 409 ± 76.7 L and a Tmax [1, 12] of 38.4 ± 6 min. It also gave a clearance [1, 12] of 910 mL/min, a half-life [1, 12] of 248 ± 25.2 min and a Vd [1, 12] of 305 ± 186 L. The Tmax [1, 13] was 24 ± 8.4 min, the clearance [1, 13] was 883 mL/min and the half-life [1, 13] was 212 ± 30 min. The Vd [1, 13] was 279 ± 121 L, the “Approximate Solubility” value ([2]; 1,2-propanediol) was ~ 0.2 mg/mL and the “Approximate Solubility” value ([2]; ethanol) was over 200 mg/mL. For the same molecule, the “Approximate Solubility” value ([2]; polyethylene glycol 400) was ~ 1.5 mg/mL, the systemic effects [3] was “mild” and the “survival, 40 mg/kg/day × 5 days (from day 3) versus same total dose (200 mg/kg) as bolus on day 3” value ([4]; P<0.0001) was “superior”. The “survival, 20 mg/kg/day for 10 days versus 40 mg/kg every two days (cumulative 200 mg/kg)” value ([4]; P=0.009) was “better survival”, the “survival rates, every second day three times versus every day for 5 days (cumulative 270 mg/kg)” value ([4]; p=0.49) was “no significant differences” and the “survival, daily dose (20, 40, or 80 mg/kg for 5 days) fractionated into two doses per day versus one daily dose” value [4] was “did not improve survival”. The Cmax [5, 14] was 6565 ± 2158 ng/mL, the t1/2 [5, 14] was 46.6 ± 8.7 min and the Cmax [5, 15] was 15505 ± 6245 ng/mL. The t1/2 [5, 15] was 44.6 ± 8.0 min, the Cmax [5, 16] was 31177 ± 8968 ng/mL and the t1/2 [5, 16] was 43.4 ± 6.7 min. For the same molecule, the “dose limiting toxicity (DLT)” value ([5]; 600 mg/m2/d, six patients, ref on-going phase 1) was “DLT of severe fatigue”, the Cmax [5, 17] was 53779 ± 6381 ng/mL and the t1/2 [5, 17] was 54.2 ± 8.7 min. The Cmax [5, 18] was 52362 ± 12724 ng/mL, the t1/2 [5, 18] was 85.5 ± 19.6 min and the tolerability ([5]; doses ranging from 150 – 1200 mg/m2, ref phase 1 study currently underway) was “generally been well tolerated”. For the same molecule, the “systemic and local irritation adverse events (lymphopenia, lymphoid atrophy, injection site reactions)” value ([6]; 50 mg/kg/day, arginine formulation) was “mild and fully reversible”, the “no-observable-effect-level (NOEL)” value ([6]; one study) was 10 mg/kg/day and the mean plasma concentration ([7]; after 0.5 hour) was 3.3 ± 0.7 µM. The mean plasma concentration ([7]; by 2 hours) was 0.042 ± 0.002 µM, the tumor growth [8] was “Delay of tumor growth was observed” and the “belinostat converted to belinostat-G” value (UGT1A1; 2 h incubation with UGT1A1 supersomes) was 73.6%. The “belinostat converted to belinostat-G” value (UGT1A1; 4 h incubation with UGT1A1 supersomes) was 89.4%, the “glucuronidation of belinostat by UGT isoform” value (UGT1A1; UGT1A1 supersomes, 10 µM belinostat) was “glucuronidated belinostat significantly” and the “inhibition of the five major cytochrome P450 enzymes” value [9] was “did not inhibit”.
